Results published in patent publication US20090076050A1, “SYNERGISTIC TUMOR-KILLING EFFECT OF RADIATION AND BERBERINE COMBINED TREATMENT IN LUNG CANCER” (CHUNG SHAN MEDICAL U., priority 2007, published 2009).

Key:
Type in all cases: cell-based, human
[1] = tested on: A549 cells; experiment: electron microscopic analysis of autophagy; details: IR and 5.0 μM berberine, 24 h
Method: Autophagic cell death has been recognized as programmed cell death type II, it has been detected in a variety of cancer cells treated with radiation or chemotherapy. Therefore, it had been examined whether IR treatment combined with berberine induced autophagic cell death in A549 cells by electron microscopic analysis (FIG. 4A). Cells were harvested by trypsinization, and fixed with 2% glutaraldehyde, 4% paraformaldehyde and 1% tannic acid in 0.1 mol/L cacodylate buffer, pH 7.4, for 25 h. The cells were stained with an osmium-thiocarbohydrazide-osmium (OTO). After staining, the cells were dehydrated in a graded series of 70% to 100% EtOH and then immersed serially with 1:1 hexamethyldisilazane and absolute ethanol. […] Autophagy is characterized by the development of AVOs, which is measured by vital staining of acridine orange. […] To quantitate acidic vesicular organelles, Stained cells were collected for the FACScan (Becton Dickinson, San Jose, Calif.) using CellQuest software (Becton Dickinson). Acridine orange-positive cells with bright red fluorescence were detected among A549 cells 24 h after co-treated with berberine and IR (6 Gy), whereas they were sparse among non-treated cells or irradiated cells (FIG. 4B). […]

[2] = tested on: LC3-II in A549 cells; experiment: immunoblotting for LC3-I, LC3-II; details: 24 h after IR combined with increasing concentrations of berberine
Method: The role of apoptosis in the sensitivity of A549 cells to IR induced by berberine was further clarified by DAPI stain. DNA extraction and electrophoresis on agarose gel were carried out as described previously (Solary E, et al. Therapie 2001; 56:511-18). After the indicated treatments, cells were fixed with 3 mL of 4% paraformaldehyde. To stain the cells, 500 μL of a 0.5 μg/mL chilled solution of DAPI (Invitrogen) stain was added and allowed to sit for 5 min. The cells were then rinsed with PBS solution and counted under a fluorescent microscope. For positive control of DNA fragmentation and DAPI stain, A549 cells were treated with 30 μM etoposide for 24 h. […] This contention was further confirmed by the lack of apoptotic DNA fragmentation and activation of caspase-3 and poly-(ADP-ribose) polymerases (PARP) as analyzed by DNA electrophoresis and immunoblotting (FIG. 3B, 3C). After the indicated treatment, the resultant supernatants were separated in 12%˜18% polyacrylamide gels. The blot was incubated with a polyclonal antibody against LC3 (gift from T. Yoshimori), PARP, caspase-3, bcl-2, beclin-1 and β-actin (Santa Cruz biotechnology, USA) for 2 h, and then with an appropriate peroxidase-conjugated secondary antibody (Sigma) for 1 h at 37° C. […] LC3 is localized in autophagosome membranes during amino acid starvation-induced autophagy (Mizushima N, et al. J Cell Biol 2001; 152:657-68.). […]

[3] = tested on: A549 cells; experiment: apoptosis hallmarks: DAPI stain, DNA electrophoresis, immunoblotting of caspase-3 and PARP; details: 24 h
Method: The role of apoptosis in the sensitivity of A549 cells to IR induced by berberine was further clarified by DAPI stain. DNA extraction and electrophoresis on agarose gel were carried out as described previously (Solary E, et al. Therapie 2001; 56:511-18). After the indicated treatments, cells were fixed with 3 mL of 4% paraformaldehyde. To stain the cells, 500 μL of a 0.5 μg/mL chilled solution of DAPI (Invitrogen) stain was added and allowed to sit for 5 min. The cells were then rinsed with PBS solution and counted under a fluorescent microscope. For positive control of DNA fragmentation and DAPI stain, A549 cells were treated with 30 μM etoposide for 24 h. […] This contention was further confirmed by the lack of apoptotic DNA fragmentation and activation of caspase-3 and poly-(ADP-ribose) polymerases (PARP) as analyzed by DNA electrophoresis and immunoblotting (FIG. 3B, 3C). After the indicated treatment, the resultant supernatants were separated in 12%˜18% polyacrylamide gels. The blot was incubated with a polyclonal antibody against LC3 (gift from T. Yoshimori), PARP, caspase-3, bcl-2, beclin-1 and β-actin (Santa Cruz biotechnology, USA) for 2 h, and then with an appropriate peroxidase-conjugated secondary antibody (Sigma) for 1 h at 37° C.

SMILES: COc1ccc2cc3[n+](cc2c1OC)CCc1cc2c(cc1-3)OCO2 [berberine, Berberine]
- autophagic vacuoles by electron microscopy [1]: Numerous empty vacuoles and autophagic vacuoles
- expression of LC3-II [2]: increased dose-dependently
- apoptotic DNA fragmentation and activation of caspase-3 and PARP ([3]; berberine with IR, DNA electrophoresis and immunoblotting (FIG. 3B, 3C)): lack
- number of apoptotic cells (DAPI stain) ([3]; co-treatment of berberine (>5.0 μM) with IR (6 Gy)): increased only slightly
